The source of these data is ChEMBL document CHEMBL1154880, “Hydroxylated sclerosporin derivatives from the marine-derived fungus Cadophora malorum” (J Nat Prod, 2010).

Usually IC50 stands for the point on the concentration scale where inhibition reaches its midpoint.

One data set deals with SARS-CoV. Kind of data set: Antiviral activity against SARS virus infected in african green monkey Vero76 cells assessed as inhibition of virus-induced cytopathogenic effect at 100 ug/ml after 3 days by neutral red uptake assay. The following applies: Severe acute respiratory syndrome-related coronavirus, Vero 76. Type of data set: functional, organism-based.
For a further data set, the system named is Influenza B virus. Nature of the data set: Antiviral activity against influenza B at 100 ug/ml. It counts as functional, organism-based.
A further data set relates to Aspergillus ruber. Kind of data set: Antifungal activity against Eurotium rubrum at 50 ug/disk. It counts as functional, organism-based.
Another data set relates to Mycotypha microspora. Kind of data set: Antifungal activity against Mycotypha microspora at 50 ug/disk. It counts as functional, organism-based.
For data set [1], the target named is Dual specificity tyrosine-phosphorylation-regulated kinase 1A (Homo sapiens) (UniProt Q13627). Kind of data set: Inhibition of DYRK1A at […].
The test system of the next data set is MCF7. Nature of the data set: Cytotoxicity against human MCF7 cells at 100 uM after 48 hrs by sulforhodamine B assay. It counts as functional, cell-based. Background: The SRB assay estimates cell density from bound dye.
In data set [2] the test system is Human immunodeficiency virus 1. Nature of the data set: Antiviral activity against HIV1 infected in human MT4 cells assessed as inhibition of virus-induced cytopathogenic effect at 50 ug/ml after 5 days by MTT assay. Type of data set: functional, organism-based. On the technique in general: Damage to the host cells serves as the signal in cytopathic effect assays.

Data set [3] has as its target Neutrophil elastase (Homo sapiens) (UniProt P08246). Kind of data set: Inhibition of human neutrophil elastase at 100 uM.
A further data set has as its system SF-268. Kind of data set: Cytotoxicity against human SF268 cells at 100 uM after 48 hrs by sulforhodamine B assay. Type of data set: functional, cell-based.
In another data set the test system is Priestia megaterium. Nature of the data set: Antibacterial activity against Bacillus megaterium at 50 ug/disk. It counts as functional, organism-based.
For another data set, the system named is Influenza A virus. Kind of data set: Antiviral activity against influenza A H5N1 subtype at 100 ug/ml. It counts as functional, organism-based.
For the next data set, the system named is NCI-H460. Nature of the data set: Cytotoxicity against human NCI-H460 cells at 100 uM after 48 hrs by sulforhodamine B assay. It counts as functional, cell-based.
In a further data set the test system is Plasmodium berghei. Nature of the data set: Antiplasmodial activity against Plasmodium berghei sporozoites expressing GFP infected in hepatocytes at 25 uM by flow cytometry. Type of data set: functional, organism-based. The following applies: Hepatocyte.
Another data set concerns Escherichia coli. Kind of data set: Antibacterial activity against Escherichia coli at 50 ug/disk. It counts as functional, organism-based.
The next data set has as its system [Chlorella] fusca. Nature of the data set: Antialgal activity against Chlorella fusca at 50 ug/disk. Type of data set: functional, organism-based. The following applies: Scenedesmus fuscus.
Data set [4] deals with Human immunodeficiency virus 2. Kind of data set: Antiviral activity against HIV2 infected in human MT4 cells assessed as inhibition of virus-induced cytopathogenic effect at 50 ug/ml after 5 days by MTT assay. Type of data set: functional, organism-based.
Data set [5] has as its target Cyclin-dependent kinase 5 (Homo sapiens) (UniProt Q00535). Kind of data set: Inhibition of CDK5 at […].
The subject of a further data set is Human gammaherpesvirus 4. Nature of the data set: Antiviral activity against Epstein-Barr virus at 100 ug/ml. It counts as functional, organism-based.
A further data set deals with Microbotryum violaceum. Kind of data set: Antifungal activity against Microbotryum violaceum at 50 ug/disk. Type of data set: functional, organism-based.
Data set [6] deals with 3T3-L1. Nature of the data set: Cytotoxicity against mouse 3T3L1 cells assessed as cell viability after 7 days. The settings on record: 3T3-L1, 168 h. Type of data set: cell-based.
In data set [7] the test system is 3T3-L1. Nature of the data set: Inhibition of adipogenesis in mouse 3T3L1 cells assessed as triglyceride accumulation at 50 ug/ml after 7 days relative to control. On the set-up: scale not given: the % may be the effect or the level left. It counts as functional.
A short description of data set [8]: Cytotoxicity against mouse 3T3L1 cells assessed as cell viability at 25 ug/ml after 7 days relative to control. Type of data set: cell-based. The settings on record: 3T3-L1 cells, read-out: Activity.
Data set [9] deals with 3T3-L1. Kind of data set: Inhibition of adipogenesis in mouse 3T3L1 cells assessed as triglyceride accumulation at 100 ug/ml after 7 days relative to control. It counts as functional. Further details: scale not given: the % may be the effect or the level left.
Data set [10] can be described thus: Cytotoxicity against mouse 3T3L1 cells assessed as cell viability at 100 ug/ml after 7 days relative to control. Type of data set: cell-based. The following applies: 3T3-L1 cells, read-out: Activity.
Data set [11] has as its system 3T3-L1. Kind of data set: Inhibition of adipogenesis in mouse 3T3L1 cells assessed as triglyceride accumulation after 7 days. It counts as functional, cell-based. The following applies: 3T3-L1, 168 h.
In data set [12] the test system is 3T3-L1. Nature of the data set: Inhibition of adipogenesis in mouse 3T3L1 cells assessed as triglyceride accumulation at 25 ug/ml after 7 days relative to control. Type of data set: functional. Further details: scale not given: the % may be the effect or the level left.
Data set [13] is described as follows: Cytotoxicity against mouse 3T3L1 cells assessed as cell viability at 50 ug/ml after 7 days relative to control. It counts as cell-based. The following applies: 3T3-L1 cells, read-out: Activity.
The subject of data set [14] is 3T3-L1. Kind of data set: Inhibition of adipogenesis in mouse 3T3L1 cells assessed as triglyceride accumulation at 4 ug/ml after 7 days relative to control. Type of data set: functional. Further details: scale not given: the % may be the effect or the level left.
Data set [15] is described as follows: Cytotoxicity against mouse 3T3L1 cells assessed as cell viability at 4 ug/ml after 7 days relative to control. It counts as cell-based. The settings on record: 3T3-L1 cells, read-out: Activity.
The test system of data set [16] is 3T3-L1. Nature of the data set: Inhibition of adipogenesis in mouse 3T3L1 cells assessed as triglyceride accumulation at 20 ug/ml after 7 days relative to control. Further details: scale not given: the % may be the effect or the level left. It counts as functional.
Data set [17] can be described thus: Cytotoxicity against mouse 3T3L1 cells assessed as cell viability at 20 ug/ml after 7 days relative to control. It counts as cell-based. The settings on record: 3T3-L1 cells, read-out: Activity.

Values after ≈ are worked out from the molar mass of the structure shown. Active and inactive are the calls of the source. The calls are words filed in the database; no cut-off is given here. Some results are limits rather than exact numbers.

Sequence of Cyclin-dependent kinase 5 (Homo sapiens) (Q00535 whole entry, looked up): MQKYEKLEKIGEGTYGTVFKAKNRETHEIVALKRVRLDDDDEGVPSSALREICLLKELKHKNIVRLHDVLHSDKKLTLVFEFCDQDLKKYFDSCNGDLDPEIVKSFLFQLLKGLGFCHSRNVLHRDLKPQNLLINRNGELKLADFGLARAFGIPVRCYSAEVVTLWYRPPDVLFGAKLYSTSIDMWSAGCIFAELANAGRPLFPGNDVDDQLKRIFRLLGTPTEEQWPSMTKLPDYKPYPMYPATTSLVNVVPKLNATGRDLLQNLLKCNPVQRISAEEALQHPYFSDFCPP
Sequence of Neutrophil elastase (Homo sapiens) (P08246 whole entry): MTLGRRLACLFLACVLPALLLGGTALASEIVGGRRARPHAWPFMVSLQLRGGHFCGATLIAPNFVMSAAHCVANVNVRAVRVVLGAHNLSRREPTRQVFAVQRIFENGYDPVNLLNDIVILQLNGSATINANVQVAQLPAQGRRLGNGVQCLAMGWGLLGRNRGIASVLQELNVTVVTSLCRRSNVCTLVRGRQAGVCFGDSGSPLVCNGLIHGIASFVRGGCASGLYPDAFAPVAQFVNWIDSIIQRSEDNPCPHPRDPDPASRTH

In the case of `CC(C)[C@H]1CC=C(C(=O)O)[C@@H]2CCC(CO)=C[C@H]12`, the outcome in the data set on SARS-CoV, in the data set on Influenza B virus, with Aspergillus ruber, with Mycotypha microspora, in the data set with Priestia megaterium and in the data set with Influenza A virus was inactive. The result (in the data set on Escherichia coli; in data set [Chlorella] fusca; in the data set with Microbotryum violaceum) was inactive. In addition, the inhibition result (in [1]; in the data set with MCF7; in data set [2]; in data set [3]; in the data set with SF-268; with NCI-H460) was “inactive” throughout. Also, the inhibition result (with Plasmodium berghei; in data set [4]; in data set [5]; in the data set with Human gammaherpesvirus 4) was “inactive” throughout.

On to `CC1=C[C@@H]2[C@@H](C(C)CO)CC=C(C(=O)O)[C@@H]2CC1` (some centres undefined), for which the outcome (in the data set with Aspergillus ruber; with Mycotypha microspora; in the data set with Priestia megaterium; with Escherichia coli; in [Chlorella] fusca; in the data set with Microbotryum violaceum) was inactive.

In the case of `NC[C@H](O)c1ccc(O)c(O)c1` [NOREPINEPHRINE], the figures for the IC50 with 3T3-L1 [6] and with 3T3-L1 [11] were > 100 µg/mL and 69 µg/mL (≈ 408 µM), respectively. Besides, the values for the Activity in the data set with 3T3-L1 [7], in the data set on 3T3-L1 [9] and in the data set on 3T3-L1 [12] were 64%, 33% and 71%, respectively. For the same molecule, the viability at 168 h, 25 ug/ml in [8] came out at 123%. The viability at 168 h, 100 ug/ml in [10] was 69%. Besides, the viability at 168 h, 50 ug/ml in [13] was 102%.

`CC1=C[C@H]2[C@@H](CC1)C(C(=O)O)=CC[C@@H]2C(C)(C)O`: the result (in the data set with Aspergillus ruber; in the data set on Mycotypha microspora; with Priestia megaterium; in the data set with Escherichia coli; in [Chlorella] fusca; in the data set with Microbotryum violaceum) was inactive.

Regarding `CC1=C[C@@H]2[C@@H](C(C)C)CC=C(C(=O)O)[C@@H]2CC1`, the outcome (with Aspergillus ruber; with Mycotypha microspora; in the data set on Priestia megaterium; in the data set with Escherichia coli; in data set [Chlorella] fusca; with Microbotryum violaceum) was inactive.

Regarding `CC1=C[C@@H]2[C@@H](C(C)C)[C@H](O)C=C(C(=O)O)[C@@H]2CC1`, the IC50 with 3T3-L1 [6] came to 76 µg/mL (≈ 304 µM); in the data set with 3T3-L1 [11] it was 53 µg/mL (≈ 212 µM). The result (with Aspergillus ruber; in the data set with Mycotypha microspora; in the data set with Priestia megaterium; in the data set on Escherichia coli; in data set [Chlorella] fusca; with Microbotryum violaceum) was inactive. Further, the Activity with 3T3-L1 [14] turned out to be 117%; in the data set on 3T3-L1 [9] it was 26%; in the data set on 3T3-L1 [16], 133%. Besides, in data set [10], the viability at 168 h, 100 ug/ml is 46%. The viability at 168 h, 4 ug/ml in data set [15] is 82%. Also, the viability at 168 h, 20 ug/ml in data set [17] was 79%.
